In article PMC5829162, “Rational Design, Synthesis and Biological Evaluation of Pyrimidine-4,6-diamine derivatives as Type-II inhibitors of FLT3 Selective Against c-KIT” (Scientific Reports, 2018):
Like-named read-outs stand apart in the source and are kept apart here.

Tests used:
[1] = target: Aurora B (Homo sapiens, UniProt Q96GD4); assay: Biochemical kinase selectivity assay, Aurora B
[2] = target: CSF-1R (Homo sapiens, UniProt P07333); assay: Biochemical kinase selectivity assay, CSF-1R
[3] = tested on: Molm14^F691L; assay: Cell proliferation (CellTiter-Glo, 48 h), Molm14 F691L; type: cell-based; settings: for GI50: Homo sapiens, MOLM-14, Molm14^F691L, 48 hours
Text: (§1) Stable BaF3 populations expressing activated FLT3 were generated by retroviral spinfection with the appropriate mutated plasmid followed by selection and growth factor withdrawal as previously described. The BaF3 cell line was originally obtained from the laboratory of Charles Sawyers and has not been authenticated. MV411 and Molm14 cells were obtained from the laboratory of Scott Kogan and authenticated by Promega STR analysis in June 2013. All cell lines were mycoplasma-free. Cells were incubated with compounds for 48 hours and proliferation was assessed using CellTiter-Glo (Promega; Madison, WI) according to the manufacturer’s recommendation on a SpectraMax M3 microplate reader using SpectraMax Software (Molecular Devices; Sunnyvale, CA). All cell viability data shown is reflective of experiments performed a minimum of three times. […]
(§2) S13. Cell Cultures: Stable BaF3 populations expressing activated FLT3 were generated by retroviral spinfection with the appropriate mutated plasmid followed by selection and growth factor withdrawal as previously described .4 The BaF3 cell line was originally obtained from the laboratory of Charles Sawyers and has not been authenticated. MV411 and Molm14 cells were obtained from the laboratory of Scott Kogan and authenticated by Promega STR analysis in June
(§3) 2013. All cell lines were mycoplasma -free. Cells were incubated with compounds for 48 hours and proliferation was assessed using CellTiter -Glo (Promega; Madison, WI) according to the manufacturer’s recommendation on a SpectraMax M3 microplate reader using SpectraMax Software (Molecular Devices; Sunnyvale, CA). All cell viability data shown is reflective of experiments performed a minimum of three times.

[4] = tested on: Molm14^D835Y; assay: Cell proliferation (CellTiter-Glo, 48 h), Molm14 D835Y; type: cell-based; settings: for GI50: Homo sapiens, MOLM-14, Molm14^D835Y, 48 hours
Text: as §1, §2, §3

[5] = target: T1, FLT3 kinase (Homo sapiens, UniProt P36888); assay: Biochemical enzyme inhibition assay (microfluidics, Caliper EZ Reader II), FLT3; settings: for IC50: in vitro kinase assay, 60 min pre-incubation, ATP 190 µM, three independent experiments, read-out: FLT3 IC50 (nM) ± SD; for LE: ligand efficiency for FLT3 inhibition
T1 construct: purchased Invitrogen
T1 sequence (P36888 27-993): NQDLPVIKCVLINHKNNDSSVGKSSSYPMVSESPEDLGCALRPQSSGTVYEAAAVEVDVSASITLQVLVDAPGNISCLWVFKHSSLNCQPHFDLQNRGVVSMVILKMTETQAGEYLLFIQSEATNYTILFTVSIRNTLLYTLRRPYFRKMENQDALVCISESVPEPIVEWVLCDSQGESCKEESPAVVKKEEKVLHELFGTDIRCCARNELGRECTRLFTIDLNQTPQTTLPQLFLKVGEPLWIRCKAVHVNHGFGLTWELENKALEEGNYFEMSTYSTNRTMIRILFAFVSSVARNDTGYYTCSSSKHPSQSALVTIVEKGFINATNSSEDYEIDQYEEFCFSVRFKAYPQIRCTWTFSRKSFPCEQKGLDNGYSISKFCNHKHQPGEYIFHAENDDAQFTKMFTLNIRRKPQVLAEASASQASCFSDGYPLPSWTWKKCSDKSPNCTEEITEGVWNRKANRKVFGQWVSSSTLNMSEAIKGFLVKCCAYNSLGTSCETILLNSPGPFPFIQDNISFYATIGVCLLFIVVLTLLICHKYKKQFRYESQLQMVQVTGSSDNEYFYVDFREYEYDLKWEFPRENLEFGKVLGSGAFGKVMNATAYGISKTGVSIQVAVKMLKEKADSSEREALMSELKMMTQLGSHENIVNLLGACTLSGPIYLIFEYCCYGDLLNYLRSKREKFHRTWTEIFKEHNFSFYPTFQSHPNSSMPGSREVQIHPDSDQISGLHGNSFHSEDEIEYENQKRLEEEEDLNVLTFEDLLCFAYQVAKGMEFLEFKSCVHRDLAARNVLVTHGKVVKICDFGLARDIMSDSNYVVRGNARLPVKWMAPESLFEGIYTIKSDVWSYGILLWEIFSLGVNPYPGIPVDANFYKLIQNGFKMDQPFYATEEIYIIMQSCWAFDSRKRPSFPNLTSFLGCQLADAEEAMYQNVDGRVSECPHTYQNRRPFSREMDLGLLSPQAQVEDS

Chain of CSF-1R (P07333 20-972, species assumed): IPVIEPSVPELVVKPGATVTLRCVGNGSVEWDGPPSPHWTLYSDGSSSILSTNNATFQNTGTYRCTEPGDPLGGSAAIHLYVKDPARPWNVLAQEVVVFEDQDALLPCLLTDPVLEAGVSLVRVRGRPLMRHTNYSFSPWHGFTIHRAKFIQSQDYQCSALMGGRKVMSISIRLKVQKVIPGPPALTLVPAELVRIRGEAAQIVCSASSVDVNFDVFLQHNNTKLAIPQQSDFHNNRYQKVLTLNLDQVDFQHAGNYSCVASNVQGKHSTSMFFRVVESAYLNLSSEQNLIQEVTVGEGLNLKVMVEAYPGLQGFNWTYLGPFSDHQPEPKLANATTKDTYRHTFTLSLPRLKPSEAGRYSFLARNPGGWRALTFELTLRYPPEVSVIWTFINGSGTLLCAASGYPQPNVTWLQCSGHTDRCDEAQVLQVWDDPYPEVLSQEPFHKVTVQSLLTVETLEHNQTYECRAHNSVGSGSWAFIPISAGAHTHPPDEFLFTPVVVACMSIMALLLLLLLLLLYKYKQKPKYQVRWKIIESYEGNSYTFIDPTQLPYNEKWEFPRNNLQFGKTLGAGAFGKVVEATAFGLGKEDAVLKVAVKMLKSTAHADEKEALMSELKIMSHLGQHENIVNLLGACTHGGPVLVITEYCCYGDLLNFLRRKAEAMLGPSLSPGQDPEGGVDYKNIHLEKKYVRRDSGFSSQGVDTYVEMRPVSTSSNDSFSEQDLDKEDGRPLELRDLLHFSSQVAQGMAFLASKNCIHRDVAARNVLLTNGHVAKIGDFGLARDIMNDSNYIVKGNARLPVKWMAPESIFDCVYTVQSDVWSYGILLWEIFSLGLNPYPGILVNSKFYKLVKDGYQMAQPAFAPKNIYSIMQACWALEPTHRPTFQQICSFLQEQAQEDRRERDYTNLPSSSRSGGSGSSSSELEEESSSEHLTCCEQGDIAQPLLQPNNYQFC
Chain of Aurora B (Q96GD4 whole entry): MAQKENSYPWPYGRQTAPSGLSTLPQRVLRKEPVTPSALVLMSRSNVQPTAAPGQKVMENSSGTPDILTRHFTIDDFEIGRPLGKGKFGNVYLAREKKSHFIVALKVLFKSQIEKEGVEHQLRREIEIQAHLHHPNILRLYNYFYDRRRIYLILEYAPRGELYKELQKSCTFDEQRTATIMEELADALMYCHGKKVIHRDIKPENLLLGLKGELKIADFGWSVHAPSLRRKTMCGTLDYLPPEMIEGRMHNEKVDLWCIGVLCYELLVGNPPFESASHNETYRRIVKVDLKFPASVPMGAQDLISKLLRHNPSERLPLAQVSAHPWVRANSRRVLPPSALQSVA

| inhibition at 20 µM [1] [%] | IC50 ([2]; in vitro kinase assay, read-out: CSF-1R IC50 (nM) ± SD) [nM] | IC50 ([2]; read-out: CSF-1R IC50) [nM] | GI50 [3] [nM] | GI50 [4] [nM] | fold less inhibition on other closely related kinases versus FLT3 ([5]; enzymatic level) [fold] | IC50 [5] [nM] | LE [5] | inhibition at 20 µM ([2]; at 20 µM) [%] | fold less active than 13a on FLT3 ([5]; enzymatic FLT3 IC50 compared with 13a) | Structure (SMILES) | fold reduction in cellular activity against Molm14^F691L ([3]; gatekeeper mutation, relative to the parental FLT3-ITD cells) | fold reduction in cellular activity against Molm14^D835Y ([4]; relative to the parental FLT3-ITD cells) |
| --- | --- | --- | --- | --- | --- | --- | --- | --- | --- | --- | --- | --- |
| 79.8 | 13000 | 13000 | 1340 | 1840 | > 100 | 13.9 | 0.28 |  |  | Cn1nc(C(C)(C)C)cc1NC(=O)Cc1ccc(Nc2cc(Nc3ccc(S(C)(=O)=O)cc3)ncn2)cc1 [13a, 2-(4-(6-(4-(Methylsulfonyl)phenylamino)pyrimidin-4-ylamino)phenyl)-N-(3-tert-butyl-1-methyl-1H-pyrazol-5-yl)acetamide] | ~ 10 fold | ~ 10 fold |
| 71.9 |  |  | 2140 | 2610 |  | 63 | 0.27 | 60.7 | ~ 5 fold | CC(C)(C)c1cc(NC(=O)Cc2ccc(Nc3cc(Nc4ccc(S(C)(=O)=O)cc4)ncn3)cc2)no1 [13k, 2-(4-(6-(4-(Methylsulfonyl)phenylamino)pyrimidin-4-ylamino)phenyl)-N-(5-tert-butylisoxazol-3-yl)acetamide] |  |  |
